Results on 37 compounds are retold here after patent publication US8916555B2, “3,5-diaminopyrazole kinase inhibitors” (Axikin Pharmaceuticals, Inc., priority 2012, dated 2014).

The target in this test is T1, kinase domain protein of RC kinase (Homo sapiens, UniProt Q56UN5).
T1 sequence (Q56UN5 1061-1324 limits assumed): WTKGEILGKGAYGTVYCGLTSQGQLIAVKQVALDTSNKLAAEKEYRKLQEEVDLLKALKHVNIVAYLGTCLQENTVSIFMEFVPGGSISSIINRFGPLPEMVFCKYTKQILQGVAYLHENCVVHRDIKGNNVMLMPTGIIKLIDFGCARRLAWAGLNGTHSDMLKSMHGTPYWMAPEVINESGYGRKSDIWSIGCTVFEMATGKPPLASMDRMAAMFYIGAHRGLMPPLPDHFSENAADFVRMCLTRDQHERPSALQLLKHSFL
Put plainly: Enzymatic assay for kinase inhibitory activity (Crebtide substrate, LANCE readout), kinase domain protein. Format: biochemical. Particulars: test compound 1 μM, ATP 1 μM, Crebtide 50 nM. As to the method:
Solutions of a test compound, Crebtide (a substrate), a kinase, and ATP were prepared using 1×MAPK Buffer (50 mM HEPES, 1 mM EGTA, […], 10 mM MgCl2, 2 mM DTT, and 0.01% Tween 20).
To each well, the test compound (1 μL) was first added (in duplicate) to reach a final concentration of 1 μM or 1×IC50 of the compound. The kinase (5 μL) was then added to each well to reach a final concentration of […] for the kinase domain or […] for the full-length domain. Each plate included a positive and negative controls in duplicate wells. Crebtide (2.5 μL) was then added to each well in duplicate to reach a final concentration of 50 nM. If the full-length kinase was used, the plates were incubated for 45 min at room temperature before proceeding further. ATP (2.5 μL) was added to each well to reach a final concentration of 1 μM for the kinase domain and 3 μM for the full-length.
After the addition of ATP, the plates were incubated for 45 min at room temperature. During the incubation, an EDTA solution (40 mM) and anti-Crebtide ([…]) were prepared. Additionally, a detection buffer stock solution was diluted ten fold before use.
After the incubation, the anti-Crebtide (5 μL) and EDTA (5 μL) were added to each well to reach their final concentrations of […] and 10 mM, respectively. The plates were allowed to develop at room temperature for 45 min. The plates were then read at 665 nm and 615 nm using Perkin Elmer Lance machine.
The biological results of inhibition of the kinase domain protein of RC kinase are summarized in Tables 2 and 3, wherein A represents at least 50% inhibition of the RC kinase activity at 1 μM; B represents no greater than 50% but at least 20% inhibition of the RC kinase activity at 1 μM; C represents no greater than 20% but at least 5% inhibition of the RC kinase activity at 1 μM; and D represents no greater than 5% inhibition of the RC kinase activity at 1 μM.
What is called inhibition is the drop in the measured response relative to a control, in per cent. A higher inhibition goes with a strong effect. Compound `N#Cc1c(Nc2cccc(Cl)c2)n[nH]c1NCc1ccc(OCCO)cc1` [Compound C21, 3-((3-chlorophenyl)amino)-5-((4-(2-hydroxyethoxy)benzyl)amino)-1H-pyrazole-4-carbonitrile] had an inhibition at 1 µM of 5 to 20%.

In the case of `NC(=O)c1c(Nc2ccc(CN3CCOCC3)cc2)n[nH]c1NCc1ccc(O)cc1` [Compound D134, 5-((4-hydroxybenzyl)amino)-3-((4-(morpholinomethyl)phenyl)amino)-1H-pyrazole-4-carboxamide], the inhibition at 1 µM is ≥ 50%.

As to `COc1ccc(C(F)(F)F)cc1CNc1[nH]nc(Nc2cccc(Cl)c2)c1C#N` [Compound C14], the inhibition at 1 µM is ≤ 5%.

Turning to `NC(=O)c1c(Nc2ccc(-n3cccn3)cc2)n[nH]c1NCc1ccc(O)cc1` [Compound D79, 3-((4-(1H-pyrazol-1-yl)phenyl)amino)-5-((4-hydroxybenzyl)amino)-1H-pyrazole-4-carboxamide], the inhibition at 1 µM is ≥ 50%.

In turn, `N#Cc1c(Nc2cccc(Cl)c2)n[nH]c1NCc1ccc(-n2cnc3ccccc32)cc1` [Compound C7] returned an inhibition at 1 µM of 5 to 20%.

As to `N#Cc1c(Nc2cccc(Cl)c2)n[nH]c1NCc1ccc(-c2ccccn2)s1` [Compound C16], the inhibition at 1 µM is ≤ 5%.

With `NC(=O)c1c(Nc2cccc(Cl)c2)n[nH]c1NCc1c[nH]nc1-c1ccc(F)cc1` [Compound D166], the inhibition at 1 µM was ≤ 5%.

`Cc1cc(F)ccc1CNc1[nH]nc(Nc2cccc(Cl)c2)c1C#N` [Compound C29, 3-((3-chlorophenyl)amino)-5-((4-fluoro-2-methylbenzyl)amino)-1H-pyrazole-4-carbonitrile] returned an inhibition at 1 µM of 5 to 20%.

`Cc1ccc(S(=O)(=O)Nc2ccc(Nc3n[nH]c(NCc4ccc(O)cc4)c3C(N)=O)cc2)cc1` [Compound D136, 5-((4-hydroxybenzyl)amino)-3-((4-(4-methylphenylsulfonamido)phenyl)amino)-1H-pyrazole-4-carboxamide] came in with an inhibition at 1 µM of 20 to 50%.

With `COc1ccc(CNc2[nH]nc(Nc3cccc(Cl)c3)c2C#N)c(C)c1C` [Compound C22], the inhibition at 1 µM was ≤ 5%.

Regarding `COc1cc(OC)c(OC)cc1CNc1[nH]nc(Nc2cccc(Cl)c2)c1C(N)=O` [Compound D58], the inhibition at 1 µM was 5 to 20%.

Compound `Cc1cc(CNc2[nH]nc(Nc3cccc(Cl)c3)c2C(N)=O)cc(C)c1O` [Compound D8] came in with an inhibition at 1 µM of 20 to 50%.

Consider `N#Cc1c(Nc2cccc(Cl)c2)n[nH]c1NCc1ccc(-n2cncn2)cc1` [Compound C20], for which the inhibition at 1 µM lay in the range of 5 to 20%.

For `N#Cc1c(Nc2cccc(Cl)c2)n[nH]c1NCc1ccc(S(F)(F)(F)(F)F)cc1` [Compound C5, 3-((3-chlorophenyl)amino)-5-((4-pentafluorothiobenzyl)amino)-1H-pyrazole-4-carbonitrile], the inhibition at 1 µM lay within 5 to 20%.

`N#Cc1c(Nc2cccc(Cl)c2)n[nH]c1NCc1ccc(N2CCOCC2)nc1` [Compound C15]: the inhibition at 1 µM was ≤ 5%.

`N#Cc1c(Nc2cccc(Cl)c2)n[nH]c1NCc1c[nH]c2c(F)c(F)c(F)c(F)c12` [Compound C8] gave an inhibition at 1 µM of 5 to 20%.

Compound `Cc1ccc(CNc2[nH]nc(Nc3cccc(Cl)c3)c2C#N)c(O)c1` [Compound C30] showed an inhibition at 1 µM of 5 to 20%.

Turning to `N#Cc1c(Nc2cccc(Cl)c2)n[nH]c1NCc1ccc(OCc2ccc(F)cc2)cc1` [Compound C6], the inhibition at 1 µM is 20 to 50%.

For `N#Cc1c(Nc2cccc(Cl)c2)n[nH]c1NCc1ccc(Oc2nccc(C(F)(F)F)n2)cc1` [Compound C1, 3-((3-chlorophenyl)amino)-5-((4-((4-(trifluoromethyl)pyrimidin-2-yl)oxy)benzyl)amino)-1H-pyrazole-4-carbonitrile], the inhibition at 1 µM was in the range of 5 to 20%.

Take `NC(=O)c1c(Nc2cccc(Cl)c2)n[nH]c1NCc1ccc(Oc2ncccn2)cc1` [Compound D11, 3-((3-chlorophenyl)amino)-5-((4-(pyrimidin-2-yloxy)benzyl)amino)-1H-pyrazole-4-carboxamide]: the “Activity (inhibition of the RC kinase activity at 1 μM)” value is listed as “A (at least 50% inhibition of the RC kinase activity at 1 μM)”.

`N#Cc1c(Nc2cccc(Cl)c2)n[nH]c1NCc1cccn1S(=O)(=O)c1ccccc1` [Compound C4] displayed an inhibition at 1 µM of 5 to 20%.

The compound `NC(=O)c1c(Nc2cccc(Cl)c2)n[nH]c1NCc1cccn1S(=O)(=O)c1ccccc1` [Compound D18, 3-((3-chlorophenyl)amino)-5-(((1-(phenylsulfonyl)-1H-pyrrol-2-yl)methyl)amino)-1H-pyrazole-4-carboxamide] returned an inhibition at 1 µM of 20 to 50%.

As to `NC(=O)c1c(Nc2ccc(NC(=O)c3cccc(Cl)c3)cc2)n[nH]c1NCc1ccc(O)cc1` [Compound D130], the inhibition at 1 µM is ≥ 50%.

As to `N#Cc1c(Nc2cccc(Cl)c2)n[nH]c1NCc1ccc(OC(F)F)c(O)c1` [Compound C17, 3-((3-chlorophenyl)amino)-5-((4-(difluoromethoxy)-3-hydroxybenzyl)amino)-1H-pyrazole-4-carbonitrile], the inhibition at 1 µM is ≤ 5%.

Regarding `NC(=O)c1c(Nc2ccc(-c3cc[nH]n3)cc2)n[nH]c1NCc1ccc(O)cc1` [Compound D84], the inhibition at 1 µM is ≥ 50%.

With `N#Cc1c(Nc2cccc(Cl)c2)n[nH]c1NCc1ccc(-c2ccc(Cl)cc2)o1` [Compound C12], the inhibition at 1 µM is ≤ 5%.

In the case of `NC(=O)c1c(Nc2cccc(Cl)c2)n[nH]c1NCc1c[nH]c2c(F)c(F)c(F)c(F)c12` [Compound D22, 3-((3-chlorophenyl)amino)-5-(((4,5,6,7-tetrafluoro-1H-indol-3-yl)methyl)amino)-1H-pyrazole-4-carboxamide], the inhibition at 1 µM is ≤ 5%.

`NC(=O)c1c(Nc2cccc(Cl)c2)n[nH]c1NCc1ccc([N+](=O)[O-])cc1` [Compound D74, 3-((3-chlorophenyl)amino)-5-((4-nitrobenzyl)amino)-1H-pyrazole-4-carboxamide] gave an inhibition at 1 µM of 5 to 20%.

Take `N#Cc1c(Nc2cccc(Cl)c2)n[nH]c1NCc1nc(-c2ccccc2)[nH]c1Cl` [Compound C11]: the inhibition at 1 µM was ≤ 5%.

Take `NC(=O)c1c(NC2CCCCC2)n[nH]c1NCc1ccc(O)cc1` [Compound D133, 3-(cyclohexylamino)-5-((4-hydroxybenzyl)amino)-1H-pyrazole-4-carboxamide]: the inhibition at 1 µM is 20 to 50%.

With `N#Cc1c(Nc2cccc(Cl)c2)n[nH]c1NCc1ccc(OC(F)(F)F)c(F)c1` [Compound C10], the inhibition at 1 µM is ≤ 5%.

In the case of `N#Cc1c(Nc2cccc(Cl)c2)n[nH]c1NCc1cccnc1Cl` [Compound C28, 3-((3-chlorophenyl)amino)-5-(((2-chloropyridin-3-yl)methyl)amino)-1H-pyrazole-4-carbonitrile], the inhibition at 1 µM is ≤ 5%.

Regarding `COc1cccc(C(=O)Nc2ccc(Nc3n[nH]c(NCc4ccc(O)cc4)c3C(N)=O)cc2)c1` [Compound D145], the “Activity (inhibition of the RC kinase activity at 1 μM)” value is “A (at least 50% inhibition of the RC kinase activity at 1 μM)”.

Consider `Cn1nc(C(F)(F)F)c(CNc2[nH]nc(Nc3cccc(Cl)c3)c2C#N)c1Cl` [Compound C9], for which the inhibition at 1 µM is ≤ 5%.

As to `NC(=O)c1c(Nc2cccc(Cl)c2)n[nH]c1NCc1ccc(O)nc1` [Compound D86], the inhibition at 1 µM was ≤ 5%.

`NC(=O)c1c(Nc2cccc(Cl)c2)n[nH]c1NCc1ccc(Cl)nc1` [Compound D6] showed an inhibition at 1 µM of 5 to 20%.

As to `CN1CCN(c2ccc(CNc3[nH]nc(Nc4cccc(Cl)c4)c3C#N)cc2)CC1` [Compound C13], the inhibition at 1 µM was ≤ 5%.
